Here are results for 34 compounds from ChEMBL document CHEMBL1141237, “Synthesis and activity of N-acyl azacyclic urea HIV-1 protease inhibitors with high potency against multiple drug resistant viral strains” (Bioorg Med Chem Lett, 2005).

Assay [1] has as its system Human immunodeficiency virus 1. Nature of the assay: Antiviral activity against HIV1 in the presence of 50% human serum. Type of assay: functional, organism-based.
In assay [2] the test system is Human immunodeficiency virus 1. Kind of assay: Antiviral activity against HIV1 in the absence of human serum. Type of assay: functional, organism-based.
Assay [3] concerns the target Human immunodeficiency virus type 1 protease (Human immunodeficiency virus 1) (UniProt Q72874). Nature of the assay: Inhibitory activity against HIV1 protease at 0.5 uM.
For assay [4], the target named is Human immunodeficiency virus type 1 protease (Human immunodeficiency virus 1, UniProt Q72874). Kind of assay: Inhibitory activity against HIV1 protease.
Assay [5] concerns Human immunodeficiency virus. Kind of assay: Antiviral activity against indinavir resistant HIV IND-R mutant strain. Type of assay: functional, organism-based. The settings on record: Human immunodeficiency virus 1, IND-R.
Assay [6] has as its system Human immunodeficiency virus. Kind of assay: Antiviral activity against Lopinavir resistant HIV A17 mutant strain. Format: functional, organism-based. The settings on record: Human immunodeficiency virus 1, A17.
Assay [7] concerns the target Human immunodeficiency virus type 1 protease (Human immunodeficiency virus 1) (UniProt Q72874). Nature of the assay: Inhibitory activity against HIV1 protease at 1 uM.

A word on the EC50: it is the concentration at which the effect is half-maximal. In general, inhibition refers to the relative decrease from the control value, in per cent. By IC50 is commonly meant the midpoint of a concentration-inhibition curve. High values mean weaker potency in that assay, low ones greater potency in that assay.

In the case of `COc1cccc(CCC(=O)N2C[C@@H](O)[C@@H](Cc3ccccc3)N(Cc3ccc(O)c(OC)c3)C(=O)N2Cc2ccc(O)c(OC)c2)c1`, the EC50 in assay [1] amounted to 62 nM; in assay [2], 4 nM. The same compound displayed an inhibition in assay [3] of 67%.

For the compound `COc1cc(CN2C(=O)N(Cc3ccc(O)c(OC)c3)N(C(=O)CCCN3CCOCC3)C[C@@H](O)[C@H]2Cc2ccccc2)ccc1O`, the EC50 turned out to be 576 nM in assay [1] and 308 nM in assay [2]. This compound had an IC50 in assay [4] of 3.8 nM.

Regarding `COc1cc(CN2C(=O)N(Cc3ccc(O)c(OC)c3)N(Cc3ccccc3)C[C@@H](O)[C@H]2Cc2ccccc2)ccc1O`, the results for the EC50 in assay [1] and in assay [2] were 29 nM and 4 nM, respectively. This compound also returned an inhibition in assay [3] of 81%.

Turning to `COc1cc(CN2C(=O)N(Cc3ccc(O)c(OC)c3)N(C(=O)CCc3ccncc3)C[C@@H](O)[C@H]2Cc2ccccc2)ccc1O`, the EC50 was 546 nM in assay [1] and 212 nM in assay [2]. Further, it took 1.2 nM to reach half-maximal inhibition in assay [4] (IC50).

As for `Nc1cccc(CN2C(=O)N(Cc3ccc4[nH]ncc4c3)N(C(=O)CCc3ccccc3)C[C@@H](O)[C@H]2Cc2ccccc2)c1`, the results for the EC50 in assay [2], in assay [5] and in assay [6] were 13 nM, 23 nM and 98 nM, respectively. For the same compound, the inhibition in assay [3] came out at 74%.

As to `COc1cc(CN2C(=O)N(Cc3ccc(O)c(OC)c3)N(C(=O)COc3ccccc3)C[C@@H](O)[C@H]2Cc2ccccc2)ccc1O`, the EC50 came out at 5150 nM in assay [1] and 929 nM in assay [2]. In assay [3], this compound had an inhibition of 53%.

As to `O=C(CCc1ccccc1)N1C[C@@H](O)[C@@H](Cc2ccccc2)N(Cc2ccc(O)cc2)C(=O)N1Cc1ccc(O)cc1`, the EC50 in assay [2] was found to be 17 nM; in assay [5], 14 nM; in assay [6], 192 nM. The inhibition in assay [3] is 76%.

Take `COc1cc(CN2C(=O)N(Cc3ccc(O)c(OC)c3)N(C(=O)CC(C)C)C[C@@H](O)[C@H]2Cc2ccccc2)ccc1O`: the EC50 in assay [1] amounted to 27 nM; in assay [2], 9 nM; in assay [5] it was 94 nM; in assay [6], 586 nM. Further, in assay [3], the inhibition was 73%.

Take `COc1cc(CN2C(=O)N(Cc3ccc(O)c(OC)c3)N(C(=O)CCCc3ccccc3)C[C@@H](O)[C@H]2Cc2ccccc2)ccc1O`: the EC50 stood at 27 nM in assay [1] and 5 nM in assay [2]. Also, in assay [3], the inhibition came out at 75%.

On to `COc1cc(CN2C(=O)N(Cc3ccc(O)c(OC)c3)N(C(=O)CCCc3cccs3)C[C@@H](O)[C@H]2Cc2ccccc2)ccc1O`, for which the concentration giving a half-maximal response (EC50) came to 56 nM in assay [1] and 4 nM in assay [2]. The same compound had an inhibition in assay [3] of 64%.

For `N/C(=N/O)c1cccc(CN2C(=O)N(Cc3ccc4[nH]ncc4c3)N(C(=O)CCc3ccccc3)C[C@@H](O)[C@H]2Cc2ccccc2)c1`, the results for the EC50 in assay [2], in assay [5] and in assay [6] were 74 nM, 58 nM and 84 nM, respectively. In assay [3], this compound had an inhibition of 90%.

In assay [7], `CC(C)CC(=O)N1C[C@@H](O)[C@@H](Cc2ccccc2)N(Cc2ccc(N)cc2)C(=O)N1Cc1ccc(N)cc1` returned an inhibition of 56%. In addition, a half-maximal response in assay [2] (EC50) required 150 nM.

For the compound `O=C(CCc1ccccc1)N1C[C@@H](O)[C@@H](Cc2ccccc2)N(Cc2ccccc2)C(=O)N1Cc1ccc2[nH]ncc2c1`, the values for the EC50 in assay [2], in assay [5] and in assay [6] were 45 nM, 821 nM and 1070 nM, respectively. This compound also showed an inhibition in assay [3] of 66%.

As to `COc1cc(CN2C(=O)N(Cc3ccc(O)c(OC)c3)N(C(=O)CCCC3CCCO3)C[C@@H](O)[C@H]2Cc2ccccc2)ccc1O` (some centres not stated), the EC50 in assay [1] is 77 nM; in assay [2] it was 9 nM. Further, in assay [3], the inhibition amounted to 76%.

For `COc1cc(CN2C(=O)N(Cc3ccc(O)c(OC)c3)N(C(=O)CCc3ccc4c(c3)OCO4)C[C@@H](O)[C@H]2Cc2ccccc2)ccc1O`, the EC50 is 56 nM in assay [1], 4 nM in assay [2], 54 nM in assay [5] and 65 nM in assay [6]. In assay [3], this compound gave an inhibition of 73%.

On to `CC(C)CC(=O)N1C[C@@H](O)[C@@H](Cc2ccccc2)N(Cc2cccc(N)c2)C(=O)N1Cc1cccc(N)c1`, for which the EC50 was determined as 37 nM in assay [2] and 2070 nM in assay [6]. The compound further gave an inhibition in assay [3] of 66%.

`Nc1[nH]nc2ccc(CN3C(=O)N(Cc4ccccc4)[C@H](Cc4ccccc4)[C@H](O)CN3C(=O)CCc3ccccc3)cc12`: the figures for the EC50 in assay [2], in assay [5] and in assay [6] were 50 nM, 102 nM and 897 nM, respectively. The compound further had an inhibition in assay [3] of 48%.

Turning to `CC(C)CC(=O)N1C[C@@H](O)[C@@H](Cc2ccccc2)N(Cc2ccc(O)cc2)C(=O)N1Cc1ccc(O)cc1`, the EC50 in assay [2] was 30 nM; in assay [5], 171 nM; in assay [6], 312 nM. The compound also had an inhibition in assay [3] of 65%.

With `COc1cc(CN2C(=O)N(Cc3ccc(O)c(OC)c3)N(C(=O)CCc3ccc(F)cc3)C[C@@H](O)[C@H]2Cc2ccccc2)ccc1O`, the EC50 was 28 nM in assay [1], 4 nM in assay [2], 164 nM in assay [5] and 189 nM in assay [6]. This compound came in with an inhibition in assay [3] of 67%.

For `Cc1cccc(C)c1OCC(=O)N[C@@H](Cc1ccccc1)[C@@H](O)C[C@H](Cc1ccccc1)NC(=O)[C@H](C(C)C)N1CCCNC1=O` [LOPINAVIR], the EC50 in assay [1] amounted to 67 nM; in assay [2], 16 nM; in assay [5], 385 nM; in assay [6], 1060 nM.

Regarding `COc1cc(CN2C(=O)N(Cc3ccc(O)c(OC)c3)N(C(=O)CC3CCCC3)C[C@@H](O)[C@H]2Cc2ccccc2)ccc1O`, the EC50 in assay [1] amounted to 60 nM; in assay [2], 3 nM; in assay [5] it was 132 nM; in assay [6] it was 367 nM. For the same compound, the inhibition in assay [3] came to 66%.

Consider `COc1cc(CN2C(=O)N(Cc3ccc(O)c(OC)c3)N(C(=O)CN3CCNCC3)C[C@@H](O)[C@H]2Cc2ccccc2)ccc1O`, for which the results for the EC50 in assay [1] and in assay [2] were 3220 nM and 1490 nM, respectively. For the same compound, in assay [4], the IC50 was found to be 6.1 nM.

For `N/C(=N/O)c1cccc(CN2C(=O)N(Cc3ccccc3)N(C(=O)CCc3ccccc3)C[C@@H](O)[C@H]2Cc2ccccc2)c1`, the EC50 in assay [2] worked out at 45 nM; in assay [6] it was 2020 nM. Besides, in assay [3], the inhibition is 73%.

Take `COc1cc(CN2C(=O)N(Cc3ccc(O)c(OC)c3)N(C(=O)CN3CCCC3)C[C@@H](O)[C@H]2Cc2ccccc2)ccc1O`: the EC50 was 490 nM in assay [1] and 572 nM in assay [2]. Besides, the IC50 in assay [4] came to 7.9 nM.

As to `COc1cc(CN2C(=O)N(Cc3ccc(N)c(OC)c3)N(C(=O)CCc3ccccc3)C[C@@H](O)[C@H]2Cc2ccccc2)ccc1N`, the EC50 in assay [2] amounted to 53 nM; in assay [5], 504 nM; in assay [6], 464 nM. The compound also registered an inhibition in assay [3] of 88%.

For the compound `COc1cc(CN2C(=O)N(Cc3ccc(O)c(OC)c3)N(C(=O)CCc3ccoc3)C[C@@H](O)[C@H]2Cc2ccccc2)ccc1O`, the EC50 came to 18 nM in assay [1], 9 nM in assay [2], 227 nM in assay [5] and 562 nM in assay [6]. The compound further returned an inhibition in assay [3] of 68%.

In the case of `COc1cc(CN2C(=O)N(Cc3ccc(O)c(OC)c3)N(C(=O)CCc3cccnc3)C[C@@H](O)[C@H]2Cc2ccccc2)ccc1O`, the figures for the EC50 in assay [1] and in assay [2] were 353 nM and 54 nM, respectively. In addition, the inhibition in assay [3] came to 58%.

Consider `COc1cc(CN2C(=O)N(Cc3ccc(O)c(OC)c3)N(C(=O)CCc3ccccc3)C[C@@H](O)[C@H]2Cc2ccccc2)ccc1O`, for which the EC50 in assay [1] worked out at 28 nM; in assay [2], 4 nM; in assay [5], 49 nM; in assay [6], 102 nM. This compound also came in with an inhibition in assay [3] of 55%.

As for `COc1ccc(CCC(=O)N2C[C@@H](O)[C@@H](Cc3ccccc3)N(Cc3ccc(O)c(OC)c3)C(=O)N2Cc2ccc(O)c(OC)c2)cc1`, the EC50 amounted to 48 nM in assay [1], 6 nM in assay [2], 88 nM in assay [5] and 133 nM in assay [6]. The same compound registered an inhibition in assay [3] of 67%.

Turning to `CC(C)c1nc(CN(C)C(=O)N[C@H](C(=O)N[C@@H](Cc2ccccc2)C[C@H](O)[C@H](Cc2ccccc2)NC(=O)OCc2cncs2)C(C)C)cs1` [RITONAVIR], the EC50 worked out at 483 nM in assay [1], 22 nM in assay [2] and 1240 nM in assay [6].

Regarding `COc1cc(CN2C(=O)N(Cc3ccc(O)c(OC)c3)N(C(=O)CCc3ccc(O)cc3)C[C@@H](O)[C@H]2Cc2ccccc2)ccc1O`, the EC50 came to 165 nM in assay [1] and 61 nM in assay [2]. Besides, in assay [3], the inhibition is 73%.

With `COc1cc(CN2C(=O)N(Cc3ccc(O)c(OC)c3)N(C(=O)CCCCN3CCOCC3)C[C@@H](O)[C@H]2Cc2ccccc2)ccc1O`, the EC50 is 480 nM in assay [1], 86 nM in assay [2], 1040 nM in assay [5] and above 10000 nM in assay [6]. In addition, the IC50 in assay [4] was found to be 2.1 nM.

With `COc1cc(CN2C(=O)N(Cc3ccc(O)c(OC)c3)N(C(=O)CCc3ccc(OC)c(OC)c3)C[C@@H](O)[C@H]2Cc2ccccc2)ccc1O`, the half-maximal effective concentration (EC50) in assay [1] is 47 nM; in assay [2], 15 nM. The inhibition in assay [3] is 72%.

As to `COc1cc(CN2C(=O)N(Cc3ccc(O)c(OC)c3)N(C(=O)CCc3ccco3)C[C@@H](O)[C@H]2Cc2ccccc2)ccc1O`, the EC50 in assay [1] came to 16 nM; in assay [2], 3 nM; in assay [5], 81 nM; in assay [6], 455 nM. In assay [3], this compound had an inhibition of 73%.
